One assay relates to AmpC. In words: Activity of beta-lactamases towards probes (fluorescence-based activity assay), AmpC. Format: biochemical. The settings on record: probe 2.0 μM (MCW-002 1.1 μM, MCW-011 0.5 μM), PBS. On the procedure: (§1) Recombinant his-tagged beta-lactamases, including NDM-1, IMP-1, KPC-2, VIM-2 and OXA-48 were overexpressed in Escherichia coli. The enzymes were purified using HisTrap Ni-NTA columns. AmpC and TEM were purchased from commercial sources.
(§2) The fluorescence-based activity assays were performed in phosphate-buffer saline. The concentration of some of the compounds were determined by boiling the compounds in PBS solution until fluorescence signal was saturated. The amount of released fluorophore was quantified via fluorescence spectroscopy by comparing to a corresponding calibration curve.

In assay [1] the test system is beta-lactamases, including NDM-1, IMP-1, VIM-2, KPC-2, OXA-48, AmpC, and TEM. In words: Fluorescence-based activity assay, whole panel of tested beta-lactamases. The class given is biochemical. The note with it: conclusion from fluorescence signals. The protocol: as §1, §2
Among the tested beta-lactamases, NDM-1, IMP-1, VIM-2, KPC-2 and OXA-48 are carbapenemases, whereas AmpC and TEM are not. Nitrocefin was used as a control to test the activity of the beta-lactamases because it can be hydrolyzed by a wide range of beta-lactamases.

The next assay deals with T1, KPC-2 (Klebsiella pneumoniae, UniProt Q9F663).
T1 construct: His tag; made in house; host or cells: Escherichia coli
The class given is biochemical. The note with it: for Kcat / Km: Michaelis-Menten kinetics; for fluorescence signal over time: probe 2.0 μM (MCW-002 1.1 μM, MCW-011 0.5 μM), PBS. The protocol: as §1, §2

Another assay addresses T2, NDM-1 (Klebsiella pneumoniae, UniProt C7C422).
T2 construct: His tag; made in house; host or cells: Escherichia coli
The class given is biochemical. The note with it: for Kcat / Km: Michaelis-Menten kinetics; for fluorescence signal over time: probe 2.0 μM (MCW-002 1.1 μM, MCW-011 0.5 μM), PBS. The protocol: as §1, §2

The next assay has as its target T3, OXA-48 (Klebsiella pneumoniae, UniProt Q6XEC0).
T3 construct: His tag; made in house; host or cells: Escherichia coli
The class given is biochemical. The settings on record: for Kcat / Km: Michaelis-Menten kinetics; for fluorescence signal over time: probe 2.0 μM (MCW-011 0.5 μM), PBS. On the procedure: as §1, §2

A further assay has as its target T4, VIM-2 (Escherichia coli, UniProt Q5U7L7).
T4 construct: His tag; made in house; host or cells: Escherichia coli
Format: biochemical. The note with it: for Kcat / Km: Michaelis-Menten kinetics; for fluorescence signal over time: probe 2.0 μM (MCW-011 0.5 μM), PBS. On the procedure:
as §1, §2

A further assay deals with T5, IMP-1 (Serratia marcescens, UniProt P52699).
T5 construct: His tag; made in house; host or cells: Escherichia coli
The class given is biochemical. The settings on record: for fluorescence signal over time: probe 2.0 μM (MCW-002 1.1 μM, MCW-011 0.5 μM), PBS; for Kcat / Km: Michaelis-Menten kinetics. On the procedure:
as §1, §2

For the next assay, the target named is T6, TEM (Escherichia coli, UniProt P62593).
T6 construct: purchased
In words: Activity of beta-lactamases towards probes (fluorescence-based activity assay), TEM. Format: biochemical. The note with it: probe 2.0 μM (MCW-002 1.1 μM, MCW-011 0.5 μM), PBS. On the procedure: as §1, §2

Assay [2] concerns clinical isolates (CPE, Carbapenemase Producing Enterobacteriaceae, and Non CPE strains). In words: Selectivity of probes with clinical isolates in lysis buffer (visible light and UV light). The class given is cell-based. The note with it: probe 10 μM. The protocol:
The selectivity of some probes were evaluated with clinical isolates. The carbapenemases presence in the bacteria (CPE, i.e., Carbapenemase Producing Enterobacteriaceae) were verified by PCR (Polymerase Chain Reaction). 1 μL loop-full of each test bacterium from overnight-cultured LB agar plate were added to 100 μL PBS buffer with 0.5% CHAPS. The bacteria were vortexed to give a homogenious suspension and incubated for 15 min. To each of the bacteria-lysis buffer mixture (20 μL) were added quick test reagents (Probes (Final concentration=10 μM), CarbaNP solution A and CarbaNP solution B). CarbaNP solutions A and B were freshly prepared according to CLSI protocol, where solution A contains 10 mM zinc sulphate and phenol red buffer at pH=7.8±0.1 and solution B was a mixture of solution A with 3 mg/mL imipenem.

Each structure is given as a SMILES string. A value given as a limit tells only on which side of the number the result lay.

Five compounds from patent US20210207188A1, “BETA-LACTAM COMPOUNDS AND METHODS OF USE THEREOF” (priority 2018, published 2021) can be followed below.

A word on the Km: it is the concentration of substrate that gives half-maximal velocity. Regarding `COc1cc(COc2ccc3nc4ccc(=O)cc-4oc3c2)ccc1OC/C=C/C1=C(C(=O)O)N2C(=O)[C@H]([C@@H](C)O)[C@H]2C1` [MCW-001, (5R,6S)-6-((R)-1-hydroxyethyl)-3-((E)-3-(2-methoxy-4-(((3-oxo-3H-phenoxazin-7-yl)oxy)methyl)phenoxy)prop-1-en-1-yl)-7-oxo-1-azabicyclo[3.2.0]hept-2-ene-2-carboxylic acid], the “fluorescence signal over time” value with AmpC is “minimal changes in the fluorescent signal”; at KPC-2, “pronounced increase in the fluorescent signal”; on NDM-1, “pronounced increase in the fluorescent signal”; at OXA-48 it was “pronounced increase in the fluorescent signal”; at VIM-2, “pronounced increase in the fluorescent signal”; at IMP-1 (IMP-1), “pronounced increase in the fluorescent signal”. Moreover, the “fluorescence signal over time” value on TEM is on record as “minimal changes in the fluorescent signal”. Besides, in assay [1], the “specificity among the tested beta-lactamases” value is recorded as “specific for carbapenemases”. Further, the “3S/k (detection limit of the probe towards the carbapenemase)” value worked out at 4.43 pM on KPC-2; 0.327 pM at NDM-1; 30.3 pM on OXA-48; 3.28 pM at VIM-2; 0.333 pM at IMP-1 (IMP-1). For the same compound, the “relative rate of hydrolysis reaction” value at KPC-2 is “slower compared to the reactions with NDM-1 and IMP-1”; at VIM-2, “slower compared to the reactions with NDM-1 and IMP-1”. Also, the Kcat at KPC-2 came out at 2.17 ± 0.07 s⁻¹; at NDM-1 it was 29.8 ± 0.81 s⁻¹; on OXA-48, 2.83 ± 0.18 s⁻¹; at VIM-2, 1.96 ± 0.05 s⁻¹; at IMP-1 (IMP-1) it was 33.9 ± 0.71 s⁻¹. Besides, the Km was 0.93 ± 0.11 µM on KPC-2; 1.66 ± 0.13 µM on NDM-1; 0.66 ± 0.08 µM on OXA-48; 1.18 ± 0.1 µM at VIM-2; 1.2 ± 0.08 µM at IMP-1 (IMP-1). Moreover, the “time until hydrolysis reaction complete (fluorescent signal plateaued)” value was “about 25 min” on KPC-2 (probe 2.0 μM); at most 2 min at NDM-1 (probe 2.0 μM); above 30 min on OXA-48 (probe 2.0 μM); “about 25 min” at VIM-2 (probe 2.0 μM); at most 2 min on IMP-1 (IMP-1, probe 2.0 μM). For the same compound, the “fluorescence turn-on signal upon beta-lactam hydrolysis” value at IMP-1 (MCW-001 1 μM, IMP-1 0.5 μM) is given as “more than 60 fold”. Also, the “absorption change over time” value on IMP-1 (MCW-001 10 μM, IMP-1 2 μM) was “decreased in absorbance maximum at 480 nm and increase in absorbance maximum at 571 nm”. The “signal with panel of clinical isolates” value in assay [2] (incubated for 15 min) is “observable colorimetric and fluorescence signal in CPE strains but not the Non CPE strains”; in assay [2] (incubated for 120 min) it was “observable colorimetric and fluorescence signal in CPE strains but not the Non CPE strains”.
For `CC[Si](CC)(CC)O[C@H](C)[C@H]1C(=O)N2C(C(=O)O)=C(/C=C/COc3ccc(COc4ccc5nc6ccc(=O)cc-6oc5c4)cc3OC)C[C@H]12` [MCW-002, (5R,6S)-3-((E)-3-(2-methoxy-4-(((3-oxo-3H-phenoxazin-7-yl)oxy)methyl)phenoxy)prop-1-en-1-yl)-7-oxo-6-((R)-1-((triethylsilyl)oxy)ethyl)-1-azabicyclo[3.2.0]hept-2-ene-2-carboxylic acid], the “fluorescence signal over time” value was “minimal changes in the fluorescent signal” in the assay with AmpC; “minimal changes in the fluorescent signal” at KPC-2; “pronounced increase in the fluorescent signal” on NDM-1; “pronounced increase in the fluorescent signal” at IMP-1 (IMP-1); “minimal changes in the fluorescent signal” at TEM. In addition, in assay [1], the “specificity among the tested beta-lactamases” value is “specific for NDM-1 and IMP-1, especially NDM-1”. The “relative rate of hydrolysis reaction” value on IMP-1 (IMP-1) is reported as “slower compared to the reaction with NDM-1”.
`COc1ccc(-c2c3ccc(=O)cc-3oc3cc(OCc4ccc(OC/C=C/C5=C(C(=O)O)N6C(=O)[C@H]([C@@H](C)O)[C@H]6C5)c(OC)c4)ccc23)c(C)c1` [MCW-004, (5R,6S)-6-((R)-1-hydroxyethyl)-3-((E)-3-(2-methoxy-4-(((9-(4-methoxy-2-methylphenyl)-3-oxo-3H-xanthen-6-yl)oxy)methyl)phenoxy)prop-1-en-1-yl)-7-oxo-1-azabicyclo[3.2.0]hept-2-ene-2-carboxylic acid]: the “3S/k (detection limit of the probe towards the carbapenemase)” value at KPC-2 is 5.28 pM; at NDM-1, 0.546 pM; on OXA-48, 24.9 pM; on VIM-2, 5.37 pM; at IMP-1 (IMP-1) it was 0.328 pM. Further, the Kcat at KPC-2 was found to be 2.36 ± 0.22 s⁻¹; at NDM-1, 23.5 ± 0.98 s⁻¹; on OXA-48, 10.2 ± 0.74 s⁻¹; on VIM-2, 2.28 ± 0.07 s⁻¹; on IMP-1 (IMP-1), 47.3 ± 3.34 s⁻¹. Moreover, the Km on KPC-2 stood at 3.41 ± 0.59 µM; at NDM-1 it was 1.57 ± 0.16 µM; at OXA-48 it was 1.09 ± 0.12 µM; at VIM-2 it was 1.88 ± 0.13 µM; on IMP-1 (IMP-1), 1.74 ± 0.29 µM. Also, the “signal with panel of clinical isolates” value in [2] (incubated for 15 min) and in [2] (incubated for 120 min) was “observable fluorogenic signal in CPE strains but not the Non CPE strains” throughout.
As to `C[C@@H](O)[C@H]1C(=O)N2C(C(=O)O)=C(c3ccc(COc4ccc5nc6ccc(=O)cc-6oc5c4)cc3)C[C@H]12` [MCW-008, (5R,6S)-6-((R)-1-hydroxyethyl)-7-oxo-3-(4-(((3-oxo-3H-phenoxazin-7-yl)oxy)methyl)phenyl)-1-azabicyclo[3.2.0]hept-2-ene-2-carboxylic acid], the “fluorescence signal over time” value in the assay on AmpC is “minimal changes in the fluorescent signal”; on KPC-2, “increase in the fluorescent signal”; at NDM-1, “increase in the fluorescent signal”; on OXA-48, “increase in the fluorescent signal”; on VIM-2, “increase in the fluorescent signal”; on IMP-1 (IMP-1), “increase in the fluorescent signal”. Further, the “fluorescence signal over time” value on TEM is “minimal changes in the fluorescent signal”. Further, the “specificity among the tested beta-lactamases” value in assay [1] is “specific for carbapenemases”.
Take `COc1ccc(-c2c3ccc(=O)cc-3oc3cc(OCc4ccc(OC/C=C/C5=C(C(=O)O)N6C(=O)[C@H]([C@@H](C)O)[C@H]6S5)c(OC)c4)ccc23)c(C)c1` [MCW-011, (5R,6S)-6-((R)-1-hydroxyethyl)-3-((E)-3-(2-methoxy-4-(((9-(4-methoxy-2-methylphenyl)-3-oxo-3H-xanthen-6-yl)oxy)methyl)phenoxy)prop-1-en-1-yl)-7-oxo-4-thia-1-azabicyclo[3.2.0]hept-2-ene-2-carboxylic acid]: the “fluorescence signal over time” value with AmpC is given as “minimal changes in the fluorescent signal”; at KPC-2, “increase in the fluorescent signal”; on NDM-1 it was “increase in the fluorescent signal”; on OXA-48, “increase in the fluorescent signal”; at VIM-2, “increase in the fluorescent signal”; at IMP-1 (IMP-1), “increase in the fluorescent signal”. In addition, at TEM, the “fluorescence signal over time” value was “minimal changes in the fluorescent signal”. Also, the “specificity among the tested beta-lactamases” value in assay [1] was “specific for carbapenemases”.
